# Activity calls are given as the source filed them. The rule behind the calls is not given here.
# Legend:
# [1] = Induction of wound healing in BALB/c mouse model of full-thickness wounds at 50 ug/ml, TOP bid pretreated with Aprepitant for 2 hrs followed by compound administration measured after 8 days (reference value: 82.1 %); format: functional; settings: dose 50 µg/ml, time 8 day
# Mus musculus [2] = species: Mus musculus; test: Induction of wound healing in BALB/c mouse model of full-thickness wounds assessed as increase in IL-10 level in wound skin at 50 ug/ml, TOP bid measured after 4 days by ELISA; format: functional; settings: dose 50.0 µg/ml, time 4.0 day
# [3] = Toxicity in BALB/c mouse model of full-thickness wounds assessed as inflammatory foci in liver at 200 ug/ml, TOP bid measured upto 8 days by H and E staining based analysis; format: tissue-based; settings: in vivo, topical_or_ocular, 192 h, dose 200 µg/ml, time < 8 day
# RAW264.7 [4] = test: Effect on total JNK level in mouse RAW264.7 cells at 2.5 to 20 uM incubated for 4 hrs by Western blot analysis; format: functional, cell-based; settings: dose 2.5-20 µM
# Mus musculus [5] = species: Mus musculus; test: Induction of wound healing in BALB/c mouse model of full-thickness wounds assessed as increase in recruitment of M1-type macrophages in wound skin at 50 ug/ml, TOP bid measured after 2 days by IHC analysis; format: functional; settings: dose 50.0 µg/ml, time 2.0 day
# RAW264.7 [6] = test: Upregulation of phosphorylated p38 level in mouse RAW264.7 cells at 2.5 to 20 uM incubated for 4 hrs by Western blot analysis; format: functional, cell-based; settings: dose 2.5-20 µM
# RAW264.7 [7] = test: Upregulation of phosphorylated Smad2 level in Aprepitant-treated mouse RAW264.7 cells at 2.5 to 20 uM incubated for 4 hrs by Western blot analysis; format: functional, cell-based; settings: dose 2.5-20 µM
# [8] = Induction of TGF-beta1 level in Aprepitant-treated mouse RAW264.7 cells at 10 uM incubated for 24 hrs by ELISA; format: functional
# HaCaT [9] = test: Induction of cell migration in human HaCaT cells assessed as formation of cytoplasmic protrusions at 20 uM measured after 24 hrs by immunofluorescence microscopy; format: functional, cell-based
# HUVEC [10] = test: Induction of cell migration in Aprepitant-treated HUVEC cells assessed as healing rate at 20 uM measured after 48 hrs by scratch healing assay (reference value: 57.2 %); format: functional, Homo sapiens
# Splenic fibroblast = test: Effect on Smad3 activation in human […] fibroblasts upto 20 uM by Western blot analysis; format: functional, cell-based
# [11] = Toxicity in BALB/c mouse model of full-thickness wounds assessed as inflammatory foci in kidney at 200 ug/ml, TOP bid measured upto 8 days by H and E staining based analysis; format: tissue-based; settings: in vivo, topical_or_ocular, 192 h, dose 200 µg/ml, time < 8 day
# Mus musculus [12] = species: Mus musculus; test: Induction of wound healing in BALB/c mouse model of full-thickness wounds assessed as increase in TGF-1beta production in wound skin at 50 to 200 ug/ml, TOP bid measured after 8 days by ELISA; format: functional; settings: dose 50-200 µg/ml, time 8.0 day
# RAW264.7 [13] = test: Upregulation of phosphorylated JNK level in Aprepitant-treated mouse RAW264.7 cells at 2.5 to 20 uM incubated for 4 hrs by Western blot analysis; format: functional, cell-based; settings: dose 2.5-20 µM
# HaCaT [14] = test: Induction of cell migration in Mitomycin C-treated human HaCaT cells assessed as healing rate at 20 uM measured after 48 hrs by scratch healing assay (reference value: 25.7 %); format: functional
# HUVEC [15] = test: Induction of cell migration in HUVEC cells assessed as actin stress fiber formation at peripheral side of cytoplasmic membrane at 20 uM measured after 24 hrs by immunofluorescence microscopy; format: functional, cell-based; settings: Homo sapiens
# [16] = Induction of wound healing in BALB/c mouse model of full-thickness wounds at 200 ug/ml, TOP bid measured after 6 days (reference value: 71.7 %); format: functional; settings: dose 200 µg/ml, time 6 day
# HUVEC [17] = test: Angiogenic activity in HUVEC cells assessed as increase in tube formation at 20 uM measured for 4 hrs by microscopic analysis relative to control; format: functional, Homo sapiens
# HUVEC [18] = test: Angiogenic activity in HUVEC cells assessed as increase in tube formation at 10 uM measured for 4 hrs by microscopic analysis relative to control; format: functional, Homo sapiens
# [19] = Induction of wound healing in BALB/c mouse model of full-thickness wounds at 50 ug/ml, TOP bid pretreated with Aprepitant for 2 hrs followed by compound administration measured after 6 days (reference value: 69.3 %); format: functional; settings: dose 50 µg/ml, time 6 day
# Mast cell = test: Inhibition of degranulation in mast cells (unknown origin) assessed as beta- hexosaminidase release upto 40 uM; format: functional, cell-based
# [20] = Toxicity in BALB/c mouse model of full-thickness wounds assessed as animal death at 50 to 200 ug/ml, TOP bid measured upto 8 days; settings: in vivo, topical_or_ocular, 192 h, dose 50-200 µg/ml, time < 8 day
# [21] = Induction of wound healing in BALB/c mouse model of full-thickness wounds at 100 ug/ml, TOP bid measured after 8 days (reference value: 81.0 %); format: functional; settings: dose 100 µg/ml, time 8 day
# Mus musculus [22] = species: Mus musculus; test: Induction of wound healing in BALB/c mouse model of full-thickness wounds assessed as increase in phosphorylated Smad2 level in wound skin at 50 ug/ml, TOP bid measured after 4 days by Western blot analysis; format: functional; settings: dose 50.0 µg/ml, time 4.0 day
# RAW264.7 [23] = test: Induction of phagocytosis in mouse RAW264.7 cells assessed as increase in neutral red dye uptake by measuring optical density at 540 nm at 20 uM incubated for 24 hrs followed by dye addition measured after 4 hrs by absorbance based assay (reference value: 0.073); format: functional; settings: time 28 hrs
# HUVEC [24] = test: Induction of cell migration in HUVEC cells assessed as healing rate at 20 uM measured after 48 hrs by scratch healing assay (reference value: 57.2 %); format: functional, Homo sapiens
# [25] = Induction of wound healing in BALB/c mouse model of full-thickness wounds at 200 ug/ml, TOP bid measured after 4 days (reference value: 48.6 %); format: functional; settings: dose 200 µg/ml, time 4 day
# HUVEC [26] = test: Induction of cell migration in Mitomycin C-treated HUVEC cells assessed as healing rate at 20 uM measured after 24 hrs by scratch healing assay (reference value: 30.2 %); format: functional, Homo sapiens
# HUVEC [27] = test: Angiogenic activity in HUVEC cells assessed as increase in tube formation at 5 uM measured for 4 hrs by microscopic analysis relative to control; format: functional, Homo sapiens
# Escherichia coli = test: Antimicrobial activity against Escherichia coli ATCC 25922 assessed as microbial growth inhibition at 100 uM; format: functional, organism-based
# RAW264.7 [28] = test: Induction of IL-6 expression in mouse RAW264.7 cells incubated for 24 hrs by ELISA; format: functional, cell-based; settings: dose 2.5-20 µM
# Mus musculus [29] = species: Mus musculus; test: Induction of wound healing in BALB/c mouse model of full-thickness wounds assessed as increase in recruitment of M2-type macrophages in wound skin at 50 ug/ml, TOP bid measured after 4 days by IHC analysis; format: functional; settings: dose 50.0 µg/ml, time 4.0 day
# Mus musculus [30] = species: Mus musculus; test: Induction of wound healing in BALB/c mouse model of full-thickness wounds assessed as increase in granulation tissue formation at 50 ug/ml, TOP bid measured after 8 days by H and E staining based analysis; format: functional; settings: dose 50.0 µg/ml, time 8.0 day
substance,measurement,setting,value
H-KPNPDRFYGLM-NH2,Activity,[1],82.5%
same,Activity,Mus musculus [2],Active
same,Activity,[3],Non-Toxic
same,Activity,RAW264.7 [4],inactive
same,Activity,Mus musculus [5],Active
same,Activity,RAW264.7 [6],Active
same,Activity,RAW264.7 [7],inactive
same,Activity,[8],43.7 pg/mL
same,Activity,HaCaT [9],Active
same,Activity,HUVEC [10],65%
same,Activity,Splenic fibroblast,inactive
same,Activity,[11],Non-Toxic
same,Activity,Mus musculus [12],inactive
same,Activity,RAW264.7 [13],inactive
same,Activity,HaCaT [14],53%
same,Activity,HUVEC [15],Active
same,Activity,[16],100%
same,Activity,HUVEC [17],181.4%
same,Activity,HUVEC [18],139.5%
same,Activity,[19],69.4%
same,inhibition,Mast cell,Active
same,Activity,[20],Non-Toxic
same,Activity,[21],100%
same,Activity,Mus musculus [22],Active
same,OD,RAW264.7 [23],0.109
same,Activity,HUVEC [24],83.4%
same,Activity,[25],77.1%
same,Activity,HUVEC [26],43.7%
same,Activity,HUVEC [27],85.3%
same,Activity,Escherichia coli,inactive
same,Activity,RAW264.7 [28],Dose-Dependent Effect
same,Activity,Mus musculus [29],Active
same,Activity,Mus musculus [30],Active
